# Laboratory results published in US4572908A, “Dihydropyridines” (Pfizer Inc., priority 1982, dated 1986).
# System: rat aorta
# Test: inhibition of calcium-induced contraction (change in tension) of spirally cut strips of rat aorta in K+ 45 mM saline
# Assay type: cell-based
# Details: 0.75 h, 45 millimolar potassium, 2 millimolar calcium, 45 minutes, read-out: IC50 (molar concentration required to reduce the response by 50%)
# Experimental: The ability of the compounds to inhibit the movement of calcium into the cell is shown by their effectiveness in reducing the response of isolated heart tissue to an increase in calcium ion concentration in vitro. The test is performed by mounting spirally cut strips of rat aorta with one end fixed and the other attached to a force transducer. The tissue is immersed in a bath of physiological saline solution containing potassium ions at a concentration of 45 millimolar and no calcium. Calcium chloride is added to the bath with a pipette to give a final calcium ion concentration of 2 millimolar. The change in tension caused by the resulting contraction of the tissue is noted. The bath is drained and replaced with fresh saline solution and, after 45 minutes, the test is repeated with the particular compound under test present in the saline solution. The concentration of compound required to reduce the response by 50% (IC50) is recorded.
# The molar concentrations of the compounds required to reduce the response by 50% in the test specified on pages 16-17 are given below (1M=1 gm.Mole/liter).
row,SMILES,IC50 [nM]
1,CCOC(=O)C1=C(COCCNc2nc(N)n(C)n2)NC(C)=C(C(=O)OC)C1c1cccc(Cl)c1Cl (stereo not shown) [Example 5],3.02
2,CCOC(=O)C1=C(COCCNc2ncc(S(=O)(=O)N(C)C)s2)NC(C)=C(C(=O)OC)C1c1ccccc1Cl (stereo not shown) [Example 26],3.71
3,CCOC(=O)C1=C(COCCNc2cc(N3CCN(C)CC3)ncn2)NC(C)=C(C(=O)OC)C1c1cccc(Cl)c1Cl (stereo not shown) [Example 81],3.16
4,CCOC(=O)C1=C(COCCNc2cc(N3CCCCC3)ncn2)NC(C)=C(C(=O)OC)C1c1cccc(Cl)c1Cl (stereo not shown) [Example 82],4.07
5,CCOC(=O)C1=C(COCCNc2nc(C)cs2)NC(C)=C(C(=O)OC)C1c1ccccc1Cl (stereo not shown) [Example 72],39.8
6,CCOC(=O)C1=C(COCCNc2nc(-c3ccccn3)cc(=O)[nH]2)NC(C)=C(C(=O)OC)C1c1cccc(Cl)c1Cl (stereo not shown) [Example 44],15.8
7,CCOC(=O)C1=C(COCCNc2nc(C(=O)OCC)cs2)NC(C)=C(C(=O)OC)C1c1ccccc1Cl (stereo not shown) [Example 73],4.4
8,CCOC(=O)C1=C(COCCNc2ccc(S(=O)(=O)N3CCN(C=O)CC3)cn2)NC(C)=C(C(=O)OC)C1c1ccccc1Cl (stereo not shown) [Example 36],3.16
9,CCOC(=O)C1=C(COCCNc2cncc(Cl)n2)NC(C)=C(C(=O)OC)C1c1ccccc1Cl (stereo not shown) [Example 33],6.3
10,"CCOC(=O)C1=C(COCCNc2cnccn2)NC(C)=C(C(=O)OC)C1c1cccc(Cl)c1Cl (stereo not shown) [Example 89, 4-(2,3-Dichlorophenyl)-3-ethoxycarbonyl-5-methoxycarbonyl-6-methyl-2-[2-(pyrazin-2-ylamino)ethoxymethyl]-1,4-dihydropyridine]",0.501
11,CCOC(=O)C1=C(COCCNC2=NCC(=O)N2)NC(C)=C(C(=O)OC)C1c1cccc(Cl)c1Cl (stereo not shown) [Example 37],10
12,CCOC(=O)C1=C(COCCNc2nc(-c3ccccc3)cc(=O)[nH]2)NC(C)=C(C(=O)OC)C1c1cccc(Cl)c1Cl (stereo not shown) [Example 43],8.31
13,CCOC(=O)C1=C(COCCNc2nccnc2N2CCOCC2)NC(C)=C(C(=O)OC)C1c1ccccc1Cl (stereo not shown) [Example 87],100
14,CCOC(=O)C1=C(COCCNc2nccnc2Cl)NC(C)=C(C(=O)OC)C1c1ccccc1Cl (stereo not shown) [Example 32],15.8
15,"CCOC(=O)C1=C(COCCNc2nccs2)NC(C)=C(C(=O)OC)C1c1ccccc1Cl (stereo not shown) [Example 71, 4-(2-Chlorophenyl)-3-ethoxycarbonyl-5-methoxycarbonyl-6-methyl-2-[2-(thiazol-2-ylamino)ethoxymethyl]-1,4-dihydropyridine]",10
16,CCOC(=O)C1=C(COCCNc2ccc(S(N)(=O)=O)cn2)NC(C)=C(C(=O)OC)C1c1ccccc1Cl (stereo not shown) [Example 35],5.75
17,CCOC(=O)C1=C(COCCNc2cc(=O)[nH]cn2)NC(C)=C(C(=O)OC)C1c1cccc(Cl)c1Cl (stereo not shown) [Example 41],0.776

row,SMILES,IC50 [nM]
1,"CCOC(=O)C1=C(COCCNc2nc(NC(=O)NC)n(C)n2)NC(C)=C(C(=O)OC)C1c1ccccc1Cl (stereo not shown) [Example 79, hydrate]",6.6
2,CCOC(=O)C1=C(COCCNc2nc3ccccc3s2)NC(C)=C(C(=O)OC)C1c1ccccc1Cl (stereo not shown) [Example 19],10
3,CCOC(=O)C1=C(COCCNc2nccc(=O)[nH]2)NC(C)=C(C(=O)OC)C1c1cccc(C(F)(F)F)c1Cl (stereo not shown) [Example 59],3.72
4,CCOC(=O)C1=C(COCCNc2n[s+]([O-])nc2OC)NC(C)=C(C(=O)OC)C1c1ccccc1Cl (stereo not shown) [Example 65],25.1
5,CCOC(=O)C1=C(COCCNc2nc(N)n(C)n2)NC(C)=C(C(=O)OC)C1c1ccccc1Cl (stereo not shown) [Example 4],8.12
6,CCOC(=O)C1=C(COCCNc2cc(=O)[nH]cn2)NC(C)=C(C(=O)OC)C1c1cccc(C(F)(F)F)c1Cl (stereo not shown) [Example 60],44.7
7,CCOC(=O)C1=C(COCCNc2ccc(S(=O)(=O)N3CCOCC3)cn2)NC(C)=C(C(=O)OC)C1c1cccc(Cl)c1Cl (stereo not shown) [Example 45],1.09
8,CCOC(=O)C1=C(COCCNc2ccc(C(N)=O)cn2)NC(C)=C(C(=O)OC)C1c1ccccc1Cl (stereo not shown) [Example 22],18.2
9,"CCOC(=O)C1=C(COCCNc2n[nH]c(O)n2)NC(C)=C(C(=O)OC)C1c1cccc(Cl)c1Cl (stereo not shown) [Example 90B, 4-(2,3-Dichlorophenyl)-3-ethoxycarbonyl-2-[2-(5-hydroxy-1H-1,2,4-triazol-3-ylamino)ethoxymethyl]-5-methoxycarbonyl-6-methyl-1,4-dihydropyridine hydrate]",10
10,CCOC(=O)C1=C(COCCNC2=NC(=O)CS2)NC(C)=C(C(=O)OC)C1c1ccccc1Cl (stereo not shown) [Example 74],20
11,"CCOC(=O)C1=C(COCCNc2n[s+]([O-])nc2OC)NC(C)=C(C(=O)OC)C1c1cccc(Cl)c1Cl (stereo not shown) [Example 64, 3-{2-[(4-{2,3-Dichlorophenyl}-3-ethoxycarbonyl-5-methoxycarbonyl-6-methyl-1,4-dihydropyrid-2-yl)methoxy]ethylamino}-4-methoxy-1,2,5-thiadiazole-1-oxid]",10
12,CCOC(=O)C1=C(COCCNc2cc[nH]c(=O)n2)NC(C)=C(C(=O)OC)C1c1cccc(C(F)(F)F)c1Cl (stereo not shown) [Example 62],1.35
13,CCOC(=O)C1=C(COCCNc2ccc(S(=O)(=O)N(C)C)cn2)NC(C)=C(C(=O)OC)C1c1cccc(Cl)c1Cl (stereo not shown) [Example 47],1.25
14,"CCOC(=O)C1=C(COCCNc2ncc(O)c(C)n2)NC(C)=C(C(=O)OC)C1c1cccc(Cl)c1Cl (stereo not shown) [Example 91A, 4-(2,3-dichlorophenyl)-3-ethoxycarbonyl-2-[2-(5-hydroxy-4-methylpyrimidin-2-ylamino)ethoxymethyl]-5-methoxycarbonyl-6-methyl-1,4-dihydropyridine]",1
15,"CCOC(=O)C1=C(COCCNc2nc(C(C)=O)c[nH]2)NC(C)=C(C(=O)OC)C1c1cccc(Cl)c1Cl (stereo not shown) [Example 91B, 2-[2-(4-acetylimidazol-2-ylamino)ethoxymethyl]-4-(2,3-dichlorophenyl)-3-ethoxycarbonyl-5-methoxycarbonyl-6-methyl-1,4-dihydropyridine]",2.5
16,CCOC(=O)C1=C(COCCNC2=NC(C)(C)C(=O)N2)NC(C)=C(C(=O)OC)C1c1ccccc1Cl (stereo not shown) [Example 23],100
17,"CCOC(=O)C1=C(COCCNc2noc(=O)[nH]2)NC(C)=C(C(=O)OC)C1c1cccc(Cl)c1Cl (stereo not shown) [Example 78, 2-[2-(4,5-Dihydro-5-oxo-1,2,4-oxadiazol-3-ylamino)ethoxymethyl]-4-(2,3-dichlorophenyl)-3-ethoxycarbonyl-5-methoxycarbonyl-6-methyl-1,4-dihydropyridinemonohydrate]",2.29
